Reference: US20240041886A1, “METHODS FOR TREATING SPINOCEREBELLAR ATAXIA TYPE 3” (PTC Therapeutics, Inc., priority 2021, published 2024)
Where two headings read alike, the source gives them in different places.

Tests used:
ATXN3 Pre-mRNA = experiment: RT-qPCR Assay to Quantify Exon 4 Skipping in ATXN3 Pre-mRNA in Cells; assay type: cell-based; conditions: for IC50: percent exon 4 skipping by RT-qPCR after 24 h, 7-point concentration curve
Experimental: (§1) Test compounds were serially diluted 3.16-fold in 100% DMSO to generate a 7-point concentration curve. Aliquots of 0.5 μL of diluted compounds were transferred to a 96-well flat bottom plate by a liquid handler. An aliquot of 0.5 μL DMSO was also transferred to separate wells and used as controls. Duplicate samples were set up for each compound concentration and for the DMSO control.
Cells were thawed and incubated in cell culture media (DMEM, 10% FBS, and 1% antibiotic cocktail) for 72 h. Cells were trypsinized, counted, and re-suspended to a concentration of 100,000 cells/mL in cell culture media. A 100 μL aliquot of the cell suspensions were plated at 10,000 cells per well in the compound containing 96 well microtiter plate and incubated for in a cell culture incubator (37° C., 5% CO2, 100% relative humidity).
After 24 h, media was aspirated from the cells and 50 μL of the RCL2 lysis buffer (10 mM Tris-HCL pH 7.4, 150 mM NaCl, 0.33% IGEPAL® CA-630) was added to each well and incubated at RT for 1 min. Chilled nuclease free water (50 μL per well) was added and the plates were immediately transferred on ice. After 1 min on ice, plates were frozen at −80° C. overnight.
Preparation of RT-qPCR Reaction Mixture:
An aliquot of 2 μL/well of the cell lysates was transferred using the liquid handler to the Armadillo 384-Well PCR plate containing 8 μL/well of the RT-qPCR reaction mixture that was prepared as detailed above. The plates were then sealed with MicroAmp™ Optical Adhesive Film followed by spinning down for 1 min and placed in the CFX384 thermocycler (BioRad).
The RT-qPCR was carried out at the following temperatures for the indicated time: • Step 1:48° C. (30 min) • Step 2: 95° C. (10 min) • Step 3: 95° C. (15 sec) • Step 4: 60° C. (1 min); then, repeated Steps 3 and 4 for a total of 40 cycles.
The percent exon 4 skipping was calculated for each dose of compound treatment using Equations 1 and 2.
Data were fit to a dose response curve and the IC50 was interpolated using XLfit® statistical and curve fitting package.
An IC50 value between >2.0 μM and ≤3.0 μM is indicated by one star (*). […] IC50 value between >0.5 μM and ≤1.0 μM is indicated by four stars (****). An IC50 value≤0.5 μM is indicated by five stars (*****).

[1] = system: Endogenous Total ATXN3 (tATXN3) Protein; experiment: Endogenous Total ATXN3 (tATXN3) Protein Assay (MSD); assay type: cell-based; conditions: for IC50: average IC50, total ATXN3 protein in cell lysate after 48 h, 7-point concentration curve
Experimental: Meso Scale Discovery (MSD) 96-well or 384-well plates were coated overnight at 4° C. with Ataxin 3 mouse monoclonal antibody (Invitrogen, MA3-082) at a concentration of 0.5 μg/mL in PBS (30 μL per well). Plates were then washed three times with 300 μL wash buffer (0.05% TWEEN®-20, polyethylene glycol sorbitan monolaurate, in PBS) and blocked (Meso Scale Diagnostics, R93BA-1; 5% BSA in PBS) for 2 h at RT with rotational shaking and then washed three times with wash buffer.
as §1
Cells were thawed and incubated in cell culture media (DMEM, 10% FBS, and 1% antibiotic cocktail) for 72 h. Cells were trypsinized, counted, and re-suspended to a concentration of 100,000 cells/mL in cell culture media. A 100 μL aliquot of the cell suspensions were plated at 10,000 cells per well in the compound containing 96 well microtiter plate and incubated for in a cell culture incubator (37° C., 5% CO2, 100% relative humidity). After 48 h, the medium was removed and 50-100 μL of lysis buffer (Meso Scale Diagnostics, R60TX-2) containing 1× halt protease inhibitor cocktail of (Thermo Scientific, Halt™ Protease Inhibitor Cocktail, 78430) per well was added to cells to provide a “cell lysate”. The plate was placed on a shaker at 4° C. for 30 minutes, then stored at −80° C.
Cell lysate samples (25 μL) were transferred to the antibody-coated MSD plate and incubated overnight at 4° C. After removal of the lysates, the plate was washed three times with wash buffer, and 25 μL of Ataxin 3 recombinant rabbit monoclonal antibody (Invitrogen, #702788) secondary antibody (diluted to 0.25 μg/mL in 0.05% TWEEN®-20 in blocking buffer) was added to each well and incubated with shaking for 1-2 h at room temperature. Following incubation with the secondary antibody, the wells were rinsed with wash buffer and then […] Anti Rabbit Antibody Goat SULFO-TAG Labeled (Meso Scale Diagnostics, R32AB-1) detecting antibody (diluted to 0.25 μg/mL in 0.05% TWEEN®-20 in blocking buffer) was added to each well and incubated with shaking for 1 h at room temperature. After rinsing three times with wash buffer, 150 μL of Read Buffer T with surfactant (tris-based buffer containing tripropylamine, Meso Scale Diagnostics, R92TC-1) were added to each empty well, and the plate was imaged on a SI 6000 imager (MSD) according to manufacturers' instructions provided for 96- or 384-well plates.

C[C@H](N)Cc1c(F)c2c(NCc3ccco3)nc(Cl)nc2n1C [Cpd 24, 6-[(2S)-2-aminopropyl]-2-chloro-5-fluoro-N-[(furan-2-yl)methyl]-7-methyl-7H-pyrrolo[2,3-d]pyrimidin-4-amine]
IC50 (ATXN3 Pre-mRNA; read-out: IC50): 1000 to 1500 nM
IC50 ([1]; read-out: IC50): 500 to 1000 nM

C[C@H](N)Cc1c(F)c2c(NCc3nccs3)nc(Cl)nc2n1C [Cpd 38, 6-[(2S)-2-aminopropyl]-2-chloro-5-fluoro-7-methyl-N-[(1,3-thiazol-2-yl)methyl]-7H-pyrrolo[2,3-d]pyrimidin-4-amine]
IC50 (ATXN3 Pre-mRNA; read-out: IC50): 1000 to 1500 nM
IC50 ([1]; read-out: IC50): 1000 to 1500 nM

C[C@H](N)Cc1c(Cl)c2c(NCc3ccco3)nc(Cl)nc2n1C [Cpd 23, 6-[(2S)-2-aminopropyl]-2,5-dichloro-N-[(furan-2-yl)methyl]-7-methyl-7H-pyrrolo[2,3-d]pyrimidin-4-amine]
IC50 (ATXN3 Pre-mRNA; read-out: IC50): 500 to 1000 nM
IC50 ([1]; read-out: IC50): 500 to 1000 nM

C[C@H](N)Cc1c(F)c2c(NCc3cccnc3)nc(Cl)nc2n1C [Cpd 57, 6-[(2S)-2-aminopropyl]-2-chloro-5-fluoro-7-methyl-N-[(pyridin-3-yl)methyl]-7H-pyrrolo[2,3-d]pyrimidin-4-amine]
IC50 (ATXN3 Pre-mRNA): inactive
IC50 [1]: inactive

C[C@H](N)Cc1[nH]c2nc(Cl)nc(NCc3ccco3)c2c1F [Cpd 10, 6-[(2S)-2-aminopropyl]-2-chloro-5-fluoro-N-[(furan-2-yl)methyl]-7H-pyrrolo[2,3-d]pyrimidin-4-amine]
IC50 (ATXN3 Pre-mRNA; read-out: IC50): ≤ 500 nM
IC50 ([1]; read-out: IC50): ≤ 500 nM

C[C@H](N)Cc1c(F)c2c(NCc3cncs3)nc(Cl)nc2n1C [Cpd 48, 6-[(2S)-2-aminopropyl]-2-chloro-5-fluoro-7-methyl-N-[(1,3-thiazol-5-yl)methyl]-7H-pyrrolo[2,3-d]pyrimidin-4-amine]
IC50 (ATXN3 Pre-mRNA): inactive
IC50 [1]: inactive

CNCCc1[nH]c2nc(Cl)nc(NCc3ccco3)c2c1Cl [Cpd 17, 2,5-dichloro-N-[(furan-2-yl)methyl]-6-[2-(methylamino)ethyl]-7H-pyrrolo[2,3-d]pyrimidin-4-amine]
IC50 (ATXN3 Pre-mRNA; read-out: IC50): 1500 to 2000 nM
IC50 ([1]; read-out: IC50): 1000 to 1500 nM

C[C@H](N)Cc1c(F)c2c(NCc3ccncc3)nc(Cl)nc2n1C [Cpd 43, 6-[(2S)-2-aminopropyl]-2-chloro-5-fluoro-7-methyl-N-[(pyridin-4-yl)methyl]-7H-pyrrolo[2,3-d]pyrimidin-4-amine]
IC50 (ATXN3 Pre-mRNA; read-out: IC50): 2000 to 3000 nM
IC50 ([1]; read-out: IC50): 1500 to 2000 nM

C[C@H](N)Cc1c(F)c2c(NCc3ccccn3)nc(Cl)nc2n1C [Cpd 55, 6-[(2S)-2-aminopropyl]-2-chloro-5-fluoro-7-methyl-N-[(pyridin-2-yl)methyl]-7H-pyrrolo[2,3-d]pyrimidin-4-amine]
IC50 (ATXN3 Pre-mRNA): inactive
IC50 [1]: inactive

C[C@H](N)Cc1c(F)c2c(NCc3cccs3)nc(Cl)nc2n1C [Cpd 49, 6-[(2S)-2-aminopropyl]-2-chloro-5-fluoro-7-methyl-N-[(thiophen-2-yl)methyl]-7H-pyrrolo[2,3-d]pyrimidin-4-amine]
IC50 (ATXN3 Pre-mRNA; read-out: IC50): 500 to 1000 nM
IC50 ([1]; read-out: IC50): 1000 to 1500 nM

Clc1nc(NCc2ccncc2)c2cc[nH]c2n1 [Comparison Compound 1, 2-chloro-N-(pyridin-4-ylmethyl)-7H-pyrrolo[2,3-d]pyrimidin-4-amine, reference compound]
ATXN3 mRNA IC50 (ATXN3 Pre-mRNA; tested according to the assay of Example 2): inactive
ATXN3 Protein IC50 ([1]; tested according to the assay of Example 1): inactive

Cc1c(C[C@H](C)N)n(C)c2nc(Cl)nc(NCc3ccco3)c12 [Cpd 35, 6-[(2S)-2-aminopropyl]-2-chloro-N-[(furan-2-yl)methyl]-5,7-dimethyl-7H-pyrrolo[2,3-d]pyrimidin-4-amine]
IC50 (ATXN3 Pre-mRNA; read-out: IC50): ≤ 500 nM
IC50 ([1]; read-out: IC50): ≤ 500 nM

C[C@H](N)Cc1c(F)c2c(NCc3ccncc3F)nc(Cl)nc2n1C [Cpd 41, 6-[(2S)-2-aminopropyl]-2-chloro-5-fluoro-N-[(3-fluoropyridin-4-yl)methyl]-7-methyl-7H-pyrrolo[2,3-d]pyrimidin-4-amine]
IC50 (ATXN3 Pre-mRNA; read-out: IC50): 2000 to 3000 nM
IC50 ([1]; read-out: IC50): 1000 to 1500 nM
